Patent publication EP3577173B1, “COMPOSITIONS CONTAINING FATTY ACID ESTERS OF VEGETABLE ORIGIN AS SOLVENTS” (Benessere, Vincenzo, priority 2017, dated 2018)

Columns and labels:
[1] = Dissolution time of resin in solvent until the solution is clear (base for coating materials); format: physicochemical; conditions: magnetic stirring, time when solution becomes clear and no deposit is found
Method: Three commercial solvents (D100, mineral oil; 7129, 2-ethylhexyl palmitate; PARYOL TMC 810T, caprylic/capric triglyceride) and the solvents described in examples 1-4 were used. The resins of Example 1 and the chosen solvent were placed on a heating plate under magnetic stirring at 80 °C for one hour, and then allowed to cool to ambient temperature for 24 hrs. Table 1. ROSIN MODIFIED ESTER RESIN BASED PAINTS

[2] = Dynamic light scattering of 5% by weight resin solution (solvent power); format: physicochemical; conditions: DLS
Excerpt: A first assessment of the higher solvent power of pelargonic acid esters with respect to the classical solvents can be performed by means of the analysis of the data obtained with the dynamic light scattering technique (SMD 6000 Laser Quantum apparatus,50 mW source of light beam at 532.5 nm) carried out on the solution at 5% by weight of modified phenolic (Table 3) and Maleic (Table 4)Resin, solubilized with traditional mineral solvents (base mineral oilD100), traditional vegetal oil (RADIA 7129) and the solvents of the present invention. The DLS technique (Dynamic Light Scattering) allows to monitor the intensity depending on time of the light scattered by an object into a solution. The speed of fluctuation of the light intensity depends on the speed with which the element capable of generating such scattering moves into a solution; the latter is described by the diffusion coefficient D, which is related to the size of the particles into the solution, in particular to the hydrodynamic radius RI of a ball moving in a solvent having a viscosity η, according to the Stokes-Einstein equation: D = (kT)/(6πηRi) [formula] where k is the Boltzmann constant and T is the temperature.
The measurements of the dynamic light scattering allowed to evaluate the capacity of different solvents, used to disperse the two resins, to generate sub-micrometric aggregates: K16 and a maleic resin. This dispersion capacity is linked to the solvent capacity of individual substances. The lower is the size of aggregates, the better is the solvent power for the solute concerned. In the case of the present invention, the solvent consists of the compounds of general formula (I) and solutes are modified PHENOLIC RESINS and MALEIC RESINS. In this case, the smaller is the hydrodynamic radius, better is the solvation degree of the resin by the solvent, which is therefore better than solvents giving a lower solvation degree, and therefore a larger hydrodynamic radius relative to the same resins. The hydrodynamic radii found by DLS for the solvents used by us are the lowest compared to the other commercially available solventsstudied. The high solvent power, therefore confirmed by the hydrodynamic radius, has a huge impact on the paint final properties and on the production mode. The final properties are affected by the fact that the higher solvent power of our compounds allows to dissolve the rosin and maleic resins up to 70% by weight, and therefore allow to produce paints having a high degree of gloss and very high surface resistance, since these latter properties depend on the amount of resin that a solvent can dissolve to form a paint. In addition, the production mode of the paint was performed at 80°C instead of 200°C because our compounds are more solvent with respect to the commercially available ones and need a lower operating temperature in order to dissolve completely and appropriately the resins concerned.
Actually, in samples having a good resin dispersion, which are clear, particles with sub-micrometric size (2-300 nm) are obtained; sizes are associated with the presence of more or less large aggregates. In the extreme cases of precipitation phenomena (> 1000 nm), the sample appears cloudy, and this is associated with a very poor resin dispersion.
In our case, from the data shown in Tables 1 and 2 of Example 3 it can be clearly seen that […] for the solvents of the invention, and therefore the size of the aggregates, is considerably lower than in solvents commercially available at present for dispersing modified phenolic resins and maleic resins. […] A 5% w/w modified synthetic phenolic resin was used for the mixtures to be tested by DLS obtained industrially by esterification of rosin with pentaerythritol, and subsequent polymerization with phenol, trade name SIRIUS XVI, supplied by YSER. The Maleic Resin used is Perseus I supplied by Yser. Table 3. ROSIN MODIFIED ESTER RESIN

[3] = 5% w/w Perseus I resin in the solvent
[4] = 5% w/w SIRIUS XVI resin in the solvent

45% resin (dissolution time at 80 °C, min) ([1]; maleic resin)	45% resin (dissolution time at 80 °C, min) ([1]; rosin modified ester resin)	Hydrodynamic radius (nm) [2, 3]	Polydispersity index [2, 3]	Hydrodynamic radius (nm) [2, 4]	Polydispersity index [2, 4]	Compound	55% resin (dissolution time at 80 °C, min) ([1]; maleic resin)	55% resin (dissolution time at 80 °C, min) ([1]; rosin modified ester resin)	aggregate sizes ([2]; maleic resin dispersed in the solvent)	aggregate sizes ([2]; modified phenolic resin dispersed in the solvent)
15 min	13 min	2.34 ± 0.8 nm	0.70±0.06	12.9 ± 0.4 nm	0.71±0.06	CCCCCCCCC(=O)OCCCC [PAOBu, butylpelargonate]	20 min	14 min		
60 min	50 min					CCCCCCCCC(=O)OCC(CC)CCCC (stereo not shown) [PAOEtEs, 2-ethyl-hexyl pelargonate]	Clear solution	Clear solution		
10 min	15 min	1.7±0.6 nm	0.90±0.42	8.9 ± 0.9 nm	0.76±0.11	CCCCCCCCC(=O)OC [PAOMe, methylpelargonate]	15 min	16 min		
10 min	13 min	2.74±0.11 nm	1.0±0.3	9.2 ± 1.3 nm	0.64±0.14	CCCCCCCCC(=O)OC(C)C [PAOiPr, isopropyl pelargonate]	15 min	15 min		
	>60 min					CCCCCCCCCCCCCCCC(=O)OCC(CC)CCCC (stereo not shown) [Solvent 7129, 2-ethylhexyl palmitate]		A clear solution is not obtained after 2 hrs	exceeding the limit of detectability by DLS	exceeding the limit of detectability by DLS

Continued, compound first:

Compound	45% resin (dissolution time at 80 °C, min) ([1]; maleic resin)	45% resin (dissolution time at 80 °C, min) ([1]; rosin modified ester resin)	Hydrodynamic radius (nm) [2, 3]	Polydispersity index [2, 3]	Hydrodynamic radius (nm) [2, 4]	Polydispersity index [2, 4]	55% resin (dissolution time at 80 °C, min) ([1]; maleic resin)	55% resin (dissolution time at 80 °C, min) ([1]; rosin modified ester resin)	aggregate sizes ([2]; maleic resin dispersed in the solvent)	aggregate sizes ([2]; modified phenolic resin dispersed in the solvent)
CCCCCC(=O)OCCCC [CAOBu, butyl caproate]	>60 min	>60 min					A clear solution is not obtained after 4 hrs	A clear solution is not obtained after 2 hrs		
CCCCCCOC(=O)CCCCC [CAOEs, hexyl caproate]	>60 min	>60 min					A clear solution is not obtained after 4 hrs	A clear solution is not obtained after 2 hrs		
CCCCCC(=O)OCC(CC)CCCC (stereo not shown) [CAOEtEs, 2-ethyl-hexyl caproate]		>60 min						A clear solution is not obtained after 2 hrs		
CCCCCCCCOC(=O)CCCCC [CAOOt, octyl caproate]	>60 min	>60 min					A clear solution is not obtained after 4 hrs	A clear solution is not obtained after 2 hrs		
CCCCCC(=O)OC(C)C [CAOiPr, isopropyl caproate]	>60 min	>60 min					A clear solution is not obtained after 4 hrs	A clear solution is not obtained after 2 hrs		
CCCCCCCCCCCC(=O)OCCCC [LAOBu, butyl laurate]	>60 min	>60 min					A clear solution is not obtained after 2 hrs	A clear solution is not obtained after 2 hrs		
CCCCCCCCCCCC(=O)OCCCCCC [LAOEs, hexyl laurate]	>60 min	>60 min					A clear solution is not obtained after 2 hrs	A clear solution is not obtained after 2 hrs		
CCCCCCCCCCCC(=O)OCC(CC)CCCC (stereo not shown) [LAOEtEs, 2-ethyl-hexyl laurate]	>60 min	>60 min					A clear solution is not obtained after 2 hrs	A clear solution is not obtained after 2 hrs		
CCCCCCCCCCCC(=O)OCCCCCCCC [LAOOt, octyl laurate]	>60 min	>60 min					A clear solution is not obtained after 2 hrs	A clear solution is not obtained after 2 hrs		
CCCCCCCCCCCC(=O)OC(C)C [LAOiPr, isopropyl laurate]	>60 min	>60 min					A clear solution is not obtained after 2 hrs	A clear solution is not obtained after 2 hrs		
